Results on 1 compound are retold here after patent US10828326B2, “Compositions and methods for treating and preventing venom related poisoning” (priority 2015, dated 2020).

The subject of this assay is Crotalus atrox venom. Description: Thrombelastography of human plasma pretreated with iron and/or CO, then incubated with Crotalus atrox venom (Example I). The note with it: 0.5 μg/ml venom, 5 min incubation. The assay is classed as biochemical. Here is the method: Two-hundred mg of lyophilized, pooled venom was obtained from four western diamondback rattlesnakes (Crotalus atrox) for experimentation. Venom was reconstituted in calcium-free phosphate buffered saline (PBS, Sigma-Aldrich, Saint Louis, Mo., USA) at a concentration of 20 mg/ml, aliquoted, and then stored at −80° C. until experimentation at the University of Arizona. Pooled human normal plasma (George King Bio-Medical, Overland Park, Kans., USA) anticoagulated with sodium citrate was rapidly thawed at 37° C. and used for experimentation. To assess the effects of pretreatment of fibrinogen with iron, CO, or both, 1% additions of PBS, ferric chloride (FeCl3, 99.9% pure, Sigma-Aldrich, Saint Louis, Mo., USA) in PBS, or CORM-2 (tricarbonyldichlororuthenium (II) dimer, a CO releasing molecule, Sigma-Aldrich, Saint Louis, Mo., USA) dissolved in dimethyl sulfoxide (DMSO, Sigma-Aldrich, Saint Louis, Mo., USA). The final concentrations of FeCl3 and CORM-2 were 10 μM and 100 μM, respectively; these concentrations are associated with nearly maximal augmenting effects on coagulation kinetics (see, Nielsen V G, et al., Blood Coagul Fibrinolysis 2014; 25:695-702). Plasma was exposed to these various agents for at least 5 min prior to incubations with venom.
The final volume for all subsequently described plasma sample mixtures was 359.4 μl. Sample composition consisted of 326 μl of plasma; 10 μl of tissue factor reagent (0.1% final concentration in distilled water; Diagnostica Stago S.A.S., Asnieres sur Seine, France) and 3.4 μl of PBS or venom (final concentration 0.5 μg/ml). […] The aforementioned plasma and venom mixtures were placed in a disposable cup in a computer-controlled Thrombelastograph® hemostasis system (Model 5000, Haemoscope Corp., Niles, Ill., USA) and incubated for 5 or 20 min at 37° C., with addition of 20 μl of 200 mM CaCl2) as the last step to initiate clotting. Data were collected at 37° C. for 15 min after 5 min of incubation, whereas samples incubated with venom for 20 min had data collected for 30 min, given the prolonged onset of coagulation and diminished rate of thrombus formation. The following elastic modulus-based parameters previously described (see, Nielsen, et al., 2014, Blood Coagul. Fibrinolysis 25:695-702; Nielsen, et al., 2011, Blood Coagul. Fibrinolysis 22: 443-447); Nielsen V G, et al., Blood Coagul Fibrinolysis 2014; 25:845-850) were determined: time to maximum rate of thrombus generation (TMRTG): this is the time interval (min) observed prior to maximum speed of clot growth; maximum rate of thrombus generation (MRTG): this is the maximum velocity of clot growth observed (dynes/cm^2/sec); and total thrombus generation (TTG, dynes/cm^2), the final viscoelastic resistance observed after clot formation.
Data are presented as mean+SD. A commercially available statistical program was used for one-way analysis of variance followed by Holm-Sidak post hoc analyses (SigmaStat 3.1, Systat Software, Inc., San Jose, Calif., USA). Graphics depicting viscoelastic data were generated with a commercially available program (OrigenPro 7.5, OrigenLab Corporation, Northampton, Mass., USA; CorelDRAW12, Corel Corporation, Mountain View, Calif., USA).

In the case of `[Cl][Fe]([Cl])[Cl]` [iron, ferric chloride], the “maximum rate of thrombus generation (MRTG), change on venom exposure” value (vs matched venom naïve samples) is “significantly decreased”. In addition, the “maximum rate of thrombus generation (MRTG)” value (vs plasma without additions exposed to venom) was “significantly greater”. In addition, the “time to maximum rate of thrombus generation (TMRTG)” value (vs samples without iron/CO additions or with CO addition alone) is reported as “significantly smaller”.
